Experiments:
Type in all cases: cell-based, human
OVCAR5-CisR cells [1] = test: AFM cell stiffness (Young's modulus, peak indentation depth) of cisplatin-resistant OVCAR5-CisR cells
From the text: (§1) SKOV3 (American Type Culture Collection; Manassas, Va.) and OVCAR5 cells were maintained in Dulbecco's Modified Eagle's Medium supplemented with about 10% fetal bovine serum. SKOV3-CisR and OVCAR5-CisR cells were established by exposing the parental SKOV3 and OVCAR5 cell lines, respectively, to increasing concentrations of cisplatin over 12 months. OVCAR5-CisR cells are about 20- and SKOV3-CisR cells are about 8-fold more resistant to cisplatin compared to their syngeneic cisplatin sensitive counterparts. Cells were grown at about 37° C. in a humidified atmosphere containing about 5% CO2 and about 95% air.
(§2) Cells were treated with about 1 or about 5 μg/mL cisplatin (Sigma-Aldrich, St. […]
(§3) A protocol was established to exclude unhealthy or apoptotic cells from measurements by staining cells with AnnexinV (Sigma-Aldrich) as an indicator of apoptosis. Stained cells are dead or apoptotic, and typically float away and are no longer attached to a surface. Cells that stained positive for AnnexinV were excluded from AFM analysis. Measurements were conducted using a Catalyst AFM (Bruker Instruments, Santa Barbara, Calif.) with a combined inverted optical/confocal microscope (Zeiss Corp., Thornwood, N.Y.). This combination permits lateral positioning of an AFM tip over the cell center with submicron precision. AFM images and mechanical measurements were collected in contact mode using sharpened silicon nitride cantilevers with experimentally determined spring constants of about 0.02 N/m and a tip radius of less than about 20 nm. Mechanical measurements were obtained at about 37° C. with force measurements recorded at a pulling rate of about 1 Hz. Force-displacement curves were recorded for determination of Young's modulus values. Conversion of force-displacement curves to force-indentation curves allows the determination of the local cell surface elasticity or stiffness (Young's modulus, E). The measurement outcomes include averaged E values. Nanoscope files were converted to Igor. 6.0 (Wavemetrix) and used to generate two-dimensional (2D) stiffness matrix of the cell populations, allowing more precise determination of localized cell stiffness. AFM measurements were obtained in at least 60 cells in three different experiments. The AFM tip was precisely positioned (within micron range) on top of the nucleus using motorized stage and inverted optical view of the combined confocal-AFM microscope.
(§4) Data were expressed as mean±standard error of mean (SEM). Statistical significance was identified by Student's t-test or one-way analysis of variance (Origin 8.0, OriginLab Corporation, Northmpton, Mass.) for the difference among treated pairs.

SKOV3-CisR cells = test: Resistance to cisplatin of SKOV3-CisR cells versus parental SKOV3; conditions: SKOV3-CisR vs SKOV3
From the text: as §1

OVCAR5-CisR cells [2] = test: Resistance to cisplatin of OVCAR5-CisR cells versus parental OVCAR5; conditions: OVCAR5-CisR vs OVCAR5
From the text: as §1

OVCAR5 cells = test: AFM cell stiffness (Young's modulus, peak indentation depth) of cisplatin-sensitive OVCAR5 cells; conditions: for Young's modulus E (mean±SEM), peak 2 / Young's modulus E (mean±SEM), peak 1: about 24 hours
From the text: as §1, §2, §3, §4

[3] = about 5 μM cytochalasin D alone

Structure (SMILES)	difference in cell stiffness between untreated and cisplatin-treated cells (OVCAR5-CisR cells [1]; cisplatin 5 μg/mL, P=0.45)	localized peak indentation (OVCAR5-CisR cells [1]; cisplatin 5 μg/mL, untreated 0.5±0.06 μm) [μm]	Young's modulus E, peak 1 (OVCAR5-CisR cells [1]; cisplatin 5 μg/mL, untreated 1.0±0.03 kPa) [kPa]	Young's modulus E, peak 2 (OVCAR5-CisR cells [1]; cisplatin 5 μg/mL, untreated 1.84±0.1 kPa) [kPa]	fold more resistant to cisplatin compared to syngeneic cisplatin sensitive counterpart (SKOV3-CisR cells) [fold]	fold more resistant to cisplatin compared to syngeneic cisplatin sensitive counterpart (OVCAR5-CisR cells [2]) [fold]	Young's modulus E (mean±SEM), peak 2 (OVCAR5 cells; about 1 μg/mL cisplatin) [kPa]	Young's modulus E (mean±SEM), peak 1 (OVCAR5 cells; about 1 μg/mL cisplatin, untreated E=0.64±0.03 kPa) [kPa]	Young's modulus E (mean±SEM), peak 1 (OVCAR5 cells; about 5 μg/mL cisplatin) [kPa]	Young's modulus E (mean±SEM), peak 2 (OVCAR5 cells; about 5 μg/mL cisplatin) [kPa]	peak indentation depth (OVCAR5 cells; cisplatin 1 μg/mL, untreated 1.2±0.04 μm) [μm]	peak indentation depth (OVCAR5 cells; cisplatin 5 μg/mL) [μm]	Young's modulus E (OVCAR5-CisR cells [1]; [3]) [kPa]	Young's modulus E (OVCAR5 cells; [3]) [kPa]
N.N.[Cl][Pt][Cl] [cisplatin, cis-diamminedichloridoplatinum(II)]	no significant difference	0.5±0.04	0.97±0.01	1.88±0.05	8	20	1.23±0.04	0.53±0.01	0.65±0.01	1.28±0.06	0.7±0.03	0.5±0.03		
C=C1[C@@H](C)[C@H]2[C@H](Cc3ccccc3)NC(=O)[C@]23[C@H](OC(C)=O)/C=C/[C@@](C)(O)C(=O)[C@@H](C)C/C=C/[C@H]3[C@@H]1O [cytochalasin D]													0.45±0.01	0.34±0.02

Source: US20130266665A1, “NANO[…] DISEASE THERAPY” (priority 2012, published 2013)
